The term IC50 denotes the point on the concentration scale where inhibition reaches its midpoint. As usually defined, the MIC is the least concentration at which growth counts as inhibited.

Converted amounts (≈) assume the structure as drawn. Where two headings read alike, the source gives them in different places.

For experiment [1], the system named is cell-free extract from E. coli ATCC 25922 (coupled transcription/translation). In words: In vitro transcription/translation (IVTT) assay, E. coli extract. As to conditions: E. coli ATCC 25922 extract; average value and range of three independent experiments. It counts as biochemical, Escherichia coli.
In experiment [2] the test system is cell-free extract from S. aureus ATCC 29213 (coupled transcription/translation). Nature of the experiment: In vitro transcription/translation (IVTT) assay, S. aureus wt extract. It counts as biochemical, Staphylococcus aureus. As to conditions: S. aureus ATCC 29213 extract, average value and range of three independent experiments. As for the experimental part:
(§1) The cell-free protein synthesis reactions were carried out based on a procedure published for E. coli[37] and adapted for S. aureus as described previously for C. difficile. To improve expression from extracts derived from S. aureus, the firefly luciferase reporter gene was resynthesized with codons optimized for S. aureus at GeneArt AG (Regensburg, Germany) and cloned into plasmid pSP-luc_NF Fusion (Promega), replacing the existing luciferase gene. In addition, a 180-bp-long BglII-HindIII promoter fragment of gene abrB310 derived from Clostridium acetobutylicum was synthesized and cloned upstream of the codon-optimized luciferase gene for efficient translation, leading to plasmid pSPAbrlac-luc_Saur. S. aureus bacterial extracts were prepared according to a simplified E. coli procedure using a FastPrep®-24 instrument from Lucerna Chem AG (Cat No. 6004-500) and lysing matrix B (Lucerna Chem, Cat No. 116911100; silica spheres < 100 µm).
Test compounds diluted in 8% DMSO were added to reaction buffer containing bacterial extract and SP6 RNA polymerase, yielding final concentrations of 100, 20, 4, 0.8, 0.16, 0.04, 0.008, 0.0016, and 0 µM. Samples were mixed and pre-incubated for 10 min at RT before 100 ng plasmid pBestluc (E. coli) or 500 ng plasmid pSPAbrlac-luc_Saur (S. aureus) was added. After mixing, the plate was incubated at RT for 90 min. The luminescence was immediately measured after addition of the luciferase substrate Bright Glo (Promega, E2610) using a Tecan SpectralFluor Plus Reader (GeniosPro) instrument (parameters: integration time 1000 ms; intensity normal). Fifty percent inhibitory concentrations (IC50s) were calculated from the data.

For experiment [3], the system named is cell-free extract from S. aureus S1 (LZD^R, homozygous G2576U in 23S rRNA). In words: In vitro transcription/translation (IVTT) assay, S. aureus S1 LZD-resistant extract. The class given is biochemical, Staphylococcus aureus. As to conditions: average value and range of three independent experiments. The method, then:
as §1, with “S. aureus bacterial extracts were prepared according to a simplified E. coli procedure using a FastPrep®-24 instrument from Lucerna Chem AG (Cat No. 6004-500) and lysing matrix B (Lucerna Chem, Cat No. 116911100; silica spheres < 100 µm).” left out
(§2) Test compounds diluted in 8% DMSO were added to reaction buffer containing bacterial extract and SP6 RNA polymerase, yielding final concentrations of 100, 20, 4, 0.8, 0.16, 0.04, 0.008, 0.0016, and 0 µM. […] The luminescence was immediately measured after addition of the luciferase substrate Bright Glo (Promega, E2610) using a Tecan SpectralFluor Plus Reader (GeniosPro) instrument (parameters: integration time 1000 ms; intensity normal). Fifty percent inhibitory concentrations (IC50s) were calculated from the data.

For another experiment, the system named is E. coli ATCC 25922. Nature of the experiment: MIC, micro dilution (CLSI). As to conditions: Escherichia coli, ATCC25922. The class given is cell-based. The method, then: (§3) The MICs were determined using the micro dilution method recommended by the Clinical and Laboratory Standards Institute (CLSI).
For another experiment, the system named is E. coli MG1655 tolC::kan. Nature of the experiment: MIC, micro dilution (CLSI). It counts as cell-based. The settings on record: Escherichia coli. The method, then: as §3
A further experiment concerns S. aureus ATCC 29213. In words: MIC, micro dilution (CLSI). It counts as cell-based. The settings on record: Staphylococcus aureus, ATCC29213, median value of at least 3 determinations. The method, then:
as §3

For the next experiment, the system named is S. aureus S1 LZD^R. Nature of the experiment: MIC, micro dilution (CLSI). The class given is cell-based. The settings on record: Staphylococcus aureus. The method, then: as §3
In experiment [4] the test system is S. aureus linezolid-nonsusceptible G2576U mutants (14). Nature of the experiment: MIC50/MIC90, broth microdilution (CLSI), strain panel. The class given is cell-based, Staphylococcus aureus. As to conditions: linezolid-nonsusceptible S. aureus G2576U mutants (14 strains). The source says:
(§4) resistance mechanisms using broth microdilution methods (CLSI).
(§5) Cadazolid Lin e zolid Vancom yc in
(§6) lin e zolid-nonsusceptible (26**)
(§7) * The 12 tested wild-type control strains include methicillin [oxacillin]-resistant [MRSA]
(§8) strains [41.7%] from JMI Laboratories (North Liberty, Iowa).
(§9) ** The 26 clinical strains tested included 12 cfr-positive and 14 23S rRNA mutants [G2576U].
(In general: In broth dilution the organism is exposed to a series of concentrations in liquid medium.)

For experiment [5], the system named is S. aureus linezolid-nonsusceptible strains carrying cfr (12). Described as above. The class given is cell-based, Staphylococcus aureus. The settings on record: linezolid-nonsusceptible S. aureus carrying cfr (12 strains).
Text: as §4, §5, §6, §7, §8, §9

The subject of experiment [6] is S. aureus wild-type strains (12). The description is as above. The class given is cell-based, Staphylococcus aureus. The settings on record: wild-type S. aureus (12 strains).
Text: as §4, §5, §6, §7, §8, §9

Experiment [7] has as its system cell-free extracts from E. coli and from S. aureus linezolid-susceptible and -resistant strains. Nature of the experiment: In vitro translation in cell-free extracts, summary over the three extracts. It counts as biochemical. The settings on record: range over extracts from E. coli and S. aureus linezolid-susceptible and -resistant strains. As for the experimental part:
as §1, with “S. aureus bacterial extracts were prepared according to a simplified E. coli procedure using a FastPrep®-24 instrument from Lucerna Chem AG (Cat No. 6004-500) and lysing matrix B (Lucerna Chem, Cat No. 116911100; silica spheres < 100 µm).” left out
as §2

Consider `CC(=O)NC[C@H]1CN(c2ccc(N3CCOCC3)c(F)c2)C(=O)O1` [Linezolid], for which the 50% inhibitory concentration (IC50) in experiment [1] was determined as 4.03 µM; in [2], 2.61 µM; in [2] (listed as LZD), 2.6 µM; in experiment [3], 7.03 µM. In addition, the MIC against E. coli ATCC 25922 was more than 32 µg/mL; in the experiment with E. coli MG1655 tolC::kan it was 8 µg/mL (≈ 23.7 µM); against S. aureus ATCC 29213, 2 µg/mL (≈ 5.93 µM); with S. aureus S1 LZD^R, 32 µg/mL (≈ 94.9 µM). For the same compound, the MIC50 in experiment [4] came to 8; in experiment [5], 8; in experiment [6], 1. Moreover, the MIC90 in [4] was determined as 16; in experiment [5], 8; in [6], 1.

In the case of `O=C(O)c1cn(C2CC2)c2cc(N3CCC(O)(COc4ccc(N5C[C@H](CO)OC5=O)cc4F)CC3)c(F)cc2c1=O` [Cadazolid], the IC50 in [1] was 0.24 µM; in [2], 0.32 µM; in experiment [3] it was 0.33 µM; in [7] it was 0.24 to 0.33 µM. In addition, the MIC was 8 µg/mL (≈ 13.7 µM) in the experiment with E. coli ATCC 25922 (E. coli ATCC 25922, median value of at least 3 determinations, read-out: MIC); not above 0.063 µg/mL in the experiment with E. coli MG1655 tolC::kan; 0.5 µg/mL (≈ 0.854 µM) in the experiment with S. aureus ATCC 29213; 1 µg/mL (≈ 1.71 µM) with S. aureus S1 LZD^R. In addition, the MIC50 in experiment [4] came out at 0.5; in experiment [5], 0.25; in experiment [6], 0.25. Also, the MIC90 in experiment [4] amounted to 0.5; in [5] it was 0.5; in [6], 0.25.

`CN[C@H](CC(C)C)C(=O)N[C@H]1C(=O)N[C@@H](CC(N)=O)C(=O)N[C@H]2C(=O)N[C@H]3C(=O)N[C@H](C(=O)N[C@H](C(=O)O)c4cc(O)cc(O)c4-c4cc3ccc4O)[C@H](O)c3ccc(c(Cl)c3)Oc3cc2cc(c3O[C@@H]2O[C@H](CO)[C@@H](O)[C@H](O)[C@H]2O[C@H]2C[C@](C)(N)[C@H](O)[C@H](C)O2)Oc2ccc(cc2Cl)[C@H]1O` [Vancomycin]: the MIC50 was determined as 1 in experiment [4], 0.5 in experiment [5] and 1 in experiment [6]. For the same compound, the MIC90 in experiment [4], in experiment [5] and in experiment [6] was 1 each time.

For the origin of these results see article PMC6449356 (Scientific Reports, 2019).
